Results on 16 molecules are retold here after PubChem BioAssay (NCI).

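A five-concentration, 48-hour dose response in 96-well plates underlies each endpoint, interpolated linearly between surrounding concentrations. The concentration for full growth arrest is given as TGI.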

Assay in all cases: NCI-60 cell line screen, 48 h
The test system of assay [1] is CCRF-CEM leukemia.
The subject of assay [2] is MALME-3M melanoma.
Assay [3] concerns UACC-257 melanoma.
Assay [4] has as its system MCF7 breast.
Assay [5] relates to SR leukemia.
Assay [6] concerns MDA-MB-435.
Assay [7] concerns HOP-62 NSCLC.
Assay [8] has as its system T-47D breast.
Assay [9] has as its system U251 CNS.
For assay [10], the system named is A549 NSCLC.
Assay [11] concerns ACHN renal.
Assay [12] concerns PC-3 prostate.
Assay [13] relates to K-562 leukemia.
The test system of assay [14] is RXF 393 renal.

Take `CN(C)CCCNC(=O)N/N=C/c1ccc(O)cc1`: the TGI in assay [1], in [2], in assay [3], in [4], in [5] and in assay [6] was above 100 µM in each case. Moreover, the TGI in assay [7], in assay [8], in [9], in assay [10], in assay [11] and in assay [12] was above 100 µM each time. In assay [13], the TGI was above 100 µM.

As for `COC(CNC(=O)CNC(=O)c1ccc(C(F)(F)F)cc1)OC`, the TGI in assay [1], in assay [2], in assay [3], in assay [4], in [5] and in assay [6] was above 100 µM in each case. Also, the TGI in assay [8], in assay [9], in assay [10], in [11], in [12] and in assay [13] was above 100 µM throughout. This molecule came in with a TGI in assay [14] above 100 µM.

For the molecule `Cc1ccc(C2(O)c3ccccc3C(=O)N(C)C2(O)c2ccc(C)cc2)cc1` (stereo not drawn), the TGI is 39.3 µM in [1]; above 100 µM in [2]; above 100 µM in assay [3]; above 100 µM in [4]; 13.2 µM in [5]; above 100 µM in [6]. Also, the TGI in [7] is 49.5 µM; in assay [8] it was above 100 µM; in assay [9] it was 40.1 µM; in assay [10], above 100 µM; in assay [12], above 100 µM; in assay [13], above 100 µM. In assay [14], this molecule came in with a TGI above 100 µM.

In the case of `Cc1ccc(S(=O)(=O)N(CC(O)COc2ccccc2)c2c(F)c(F)cc(F)c2F)cc1` (stereo not drawn), the TGI stood at 93.6 µM in assay [1]; 64.1 µM in [2]; 32.7 µM in [4]; 28.5 µM in assay [5]; 36.5 µM in assay [6]; 52.6 µM in assay [7]. For the same molecule, the TGI in [8] turned out to be 78.3 µM; in assay [9], 48.8 µM; in assay [10] it was 72.8 µM; in assay [11], 54.1 µM; in assay [12], 45 µM.

In the case of `COc1ccc2[nH]c3cc4c(=O)c5cc(OC)ccc5[nH]c4cc3c(=O)c2c1`, the TGI in assay [2], in assay [3], in assay [4], in [5], in assay [6] and in [7] was above 100 µM throughout. Also, the TGI in assay [8], in assay [9], in assay [10], in assay [11], in [12] and in assay [13] was above 100 µM in each case. In assay [14], this molecule gave a TGI above 100 µM.

Take `Cc1ccsc1/C=N/NC1=NCCN1`: the TGI in [1], in assay [2], in assay [3], in assay [4], in [6] and in [7] was above 100 µM in each case. Further, the TGI in [8], in [9], in assay [10], in assay [11], in assay [12] and in assay [13] was above 100 µM each time. In [14], this molecule returned a TGI above 100 µM.

Take `CC(=O)O[C@@H]1[C@H](OC2CCCCC2(c2ccccc2)c2ccccc2)O[N+]([O-])=CC12CCCCC2` (stereo partly drawn): the TGI was 15.7 µM in [1]; 32 µM in [3]; 33.9 µM in [4]; above 100 µM in [5]; 29.2 µM in assay [6]; 39.4 µM in assay [8]. Besides, the TGI in assay [9] was 30.7 µM; in assay [10] it was 31.6 µM; in [11], 31.4 µM; in assay [12] it was 22.6 µM; in assay [13], above 100 µM; in [14] it was 32.6 µM.

`Oc1cc(O)c2c(c1)O[C@H](c1ccc(O)c(O)c1)[C@@H](O)C2`: the TGI in [1], in assay [2], in assay [3], in [4], in [5] and in assay [6] was above 100 µM throughout. For the same molecule, the TGI in assay [7], in assay [8], in assay [9], in [10], in [11] and in [12] was above 100 µM throughout. In addition, in [13], the TGI was above 100 µM.

On to `Clc1ccc(Nc2ncco2)cc1Cl`, for which the TGI in [1], in assay [2], in [3], in assay [4], in [5] and in assay [6] was above 10 µM each time. In addition, the TGI in assay [7], in [8], in assay [9], in assay [10], in assay [11] and in assay [12] was above 10 µM throughout. The molecule also yielded a TGI in [13] above 10 µM.

For `CC(=O)Nc1ccc(NC(=O)CC(=O)Nc2ccc(NC(C)=O)cc2)cc1`, the TGI in assay [1], in [2], in [3], in [4], in assay [5] and in [6] was above 100 µM each time. Also, the TGI in assay [8], in [9], in assay [10], in assay [11], in assay [12] and in assay [13] was above 100 µM in each case.

As to `N/C(=N\N=C\c1cc2ccccc2s1)c1cnccn1`, the TGI in assay [1], in assay [3], in [4], in assay [5], in assay [6] and in assay [7] was above 100 µM in each case. Moreover, the TGI in assay [8], in [9], in [10], in assay [11], in [12] and in [13] was above 100 µM in each case. Also, in assay [14], the TGI was above 100 µM.

For the molecule `CCOC(=O)COc1cc(-c2ccccc2F)nc2cc3c(cc12)OCO3`, the TGI in assay [1] was 55.7 µM; in assay [2] it was above 100 µM; in [3], above 100 µM; in [4] it was above 100 µM; in assay [6], above 100 µM; in assay [7], above 100 µM. In addition, the TGI in assay [8], in assay [9], in [10], in assay [11], in assay [12] and in assay [13] was above 100 µM each time. Moreover, the TGI in assay [14] was above 100 µM.

As for `C/C=C/CC(C(=O)OCC)(N(C)C(=O)OC(C)(C)C)S(=O)(=O)c1ccc(C)cc1` (stereo not drawn), the TGI in [1] is above 100 µM; in assay [2], above 100 µM; in [3], above 100 µM; in assay [4], above 100 µM; in assay [6], 83 µM; in [7], above 100 µM. The TGI in assay [8], in assay [9], in assay [10], in [11], in [12] and in [13] was above 100 µM in each case. This molecule gave a TGI in assay [14] above 100 µM.

With `Cc1nc2cn3c(c2c(=O)[nH]1)CCCCC3`, the TGI in assay [1], in assay [3], in [4], in assay [5], in [6] and in assay [7] was above 100 µM each time. In addition, the TGI in [8], in assay [9], in assay [11], in assay [12], in assay [13] and in assay [14] was above 100 µM each time.

On to `CC(=O)C(N1CCCCC1)C(O)(C(F)(F)F)C(F)(F)F` (stereo not drawn), for which the TGI in assay [1], in assay [2], in assay [3], in assay [4], in assay [5] and in assay [6] was above 100 µM in each case. Besides, the TGI in [8], in assay [9], in assay [10], in assay [11], in assay [12] and in assay [13] was above 100 µM in each case. Besides, the TGI in assay [14] is above 100 µM.

Consider `CCO/C(O)=C(/C(=N)N1CCOCC1)C(=O)Nc1cccc(C(F)(F)F)c1`, for which the TGI in [1], in [2], in assay [3], in assay [4], in assay [6] and in assay [7] was above 100 µM each time. The TGI in assay [8], in assay [9], in assay [10], in [11], in [12] and in assay [13] was above 100 µM each time. The molecule further had a TGI in assay [14] above 100 µM.
